# What was measured:
# iNOS = iNOS expression in macrophage activation (Western blotting); type: cell-based; details: RAW264.7 cells, LPS
# Experimental: RAW264.7 cells were activated under the same conditions as in (4), the cells were recovered and proteins were extracted from the cells by a routine method. Western blotting was conducted, using an anti-iNOS antibody (Santa Cruz Biotechnology) and an anti-α-tubulin antibody (Sigma Aldrich Japan) at the dilution ratio of 1/3000.
# COX-2 = COX-2 expression in macrophage activation (Western blotting); type: cell-based; details: RAW264.7 cells, LPS
# Experimental: RAW264.7 cells were activated under the same conditions as in (4), the cells were recovered, proteins were extracted from the cells in a routine method, and Western blotting was conducted using an anti-COX-2 antibody (BD Bioscience) and an anti-α-tubulin antibody (Sigma Aldrich Japan) at the dilution ratio of 1/3000.
# [1] = tested on: murine bone marrow-derived macrophages; experiment: RANKL-induced osteoclast differentiation of murine bone marrow-derived macrophages (TRAP staining); type: cell-based, mouse; details: 0.3, 1.0 and 3.0 μg/mL, RANKL 100 ng/mL, 5 days
# Experimental: The primary murine bone marrow-derived macrophages prepared in Example (10) were plated onto 24-well plates (Corning Inc.) by 500 μL each (1.25 to 3.75×10^6 cell/mL). Then 5 μL of DTCM glutarimide-C12 was added to each of the wells to the final concentrations of 0, 0.3, 1.0 and 3.0 μg/mL. All the experimental groups of plates were cultured at 37° C. under 5% CO2 for 2 hours. hRANKL (Wako Pure Chemical) at 10 μg/mL prepared in PBS containing 0.1% BSA was then added by 5 μL each (final concentration 100 ng/mL), and culture was continued. RANKL has been known as a factor to induce osteoclasts differentiation of macrophages etc. (Kobayashi et al. Crit. Rev Eukaryot Gene Expr. 19(1), 61-72, 2009). The control group of plates was cultured under the same condition but without RANKL and DTCM glutarimide.
# After 5 days of culture, the media were removed, and the cells were washed by PBS. 250 μL each of 3.5% paraformaldehyde was added to the wells to fix the cells for 5 minutes, and the fixative was washed away with PBS. […] Following an addition of 250 μL of PBS, the plates were observed under a microscope and the number of mature osteoclasts was counted in the entire visual field by regarding TRAP-positive cell having three or more fused nuclei as the mature osteoclast as it is known to be TRAP-positive.
# NF-κB = experiment: DNA binding ability of NF-κB (gel shift assay); type: cell-based; details: RAW264.7 cells
# Experimental: Next, under the same conditions as in (2) above, RAW264.7 cells were cultured with the media supplemented with DTCM glutarimide-C12 at concentrations (0, 0.1, 0.3, 1.0 and 3.0 μg/mL) for 2 hours, to which 3.0 μg/mL of LPS was added, and the cells were further cultured for 30 minutes. Then, nuclear extracts were prepared by a routine method, and a gel shift assay was conducted with using 3 μL of a ^32P-labeled probe.
# The probe was prepared as follows. First, 4 μL of 1.75 μmol/mL oligonucleotide (Promega Inc.) (5′-[…]-3′; SEQ ID N0.1), 4 μL of 10×T4 PNK buffer (Takara) and 10 μL of nucleotide free water were mixed, to which 2 μL of [γ-^32P]-ATP (Amarsham Corp.) was added, and incubated at 37° C. for 10 minutes. The reaction was then terminated by addition of 80 μL of TE buffer (10 mM Tris-HCl:1 mM EDTA=1:1). 100 μL of the reaction solution was loaded onto a Nick Column (Amersham Corp.) which had been prepared by removing the filled TE buffer and washing with distilled water, 400 μL of distilled water was loaded, and the eluate from the column was recovered in a 1.5 mL Eppendorf tube. Additional 400 μL of distilled water was loaded, and the fraction eluted again from the column was recovered in the 1.5 mL Eppendorf tube. The elute thus obtained was used as the labeled DNA probe. […]
# NO production = NO production by LPS-activated macrophages (Griess reaction); type: cell-based; details: RAW264.7 cells
# Experimental: After RAW264.7 cells were cultured under the same conditions as in (2) with the media supplemented with DTCM glutarimide-C12 at concentrations (0, 0.1, 0.3, 1.0 and 3.0 μg/mL) for 2 hours, 3.0 μg/mL of LPS was added to the media and the cells were further cultured for 20 hours. Then, NO production amounts were measured by Griess reaction and plotted against the respective DTCM glutarimide-C12 concentrations (the bar graph in FIG. 4).
# RAW264.7 cells [2] = experiment: Inhibition of synthesis of DNA, RNA and protein (3H-thymidine, uridine, leucine incorporation); type: cell-based; details: concentrations up to 10.0 μg/mL, 6 hours + 1 hour label
# Experimental: In this example, the cytotoxicity of DTCM glutarimide on RAW264.7 cells was evaluated, based on the inhibition of synthesis of DNA, RNA and protein.
# After RAW264.7 cells were cultured under the same conditions as in (2) with the media supplemented with DTCM glutarimide-C12 at concentrations (0, 0.1, 0.3, 1.0, 3.0 and 10.0 μg/mL) for 6 hours, ^3H-labeled 0.1% thymidine, 0.1% uridine and 0.1% leucine were added to the media and the cells were further cultured for 1 hour. The cells were recovered and radioactivity of TCA-insoluble fractions was measured by using a liquid scintillation counter. The counts obtained at the DTCM glutarimide-C12 concentrations were normalized by setting to 100 the count obtained without addition of DTCM glutarimide-C12 in a control experiment and relatively plotted in the graph shown in FIG. 3.
# RAW264.7 cells [3] = experiment: Living cell count by MTT method in LPS-stimulated cells; type: cell-based; details: all concentrations 0.1-3.0 μg/mL, 20 hours
# [4] = tested on: murine bone marrow-derived macrophages; experiment: Toxicity on murine bone marrow-derived macrophages (trypan blue dye exclusion); type: cell-based, mouse
# Experimental: An 8 week-old ICR mouse (male, purchased from Charles River) sacrificed by cervical dislocation was dissected under sterile conditions to isolate femora and […] from both legs. Medullary cavities were washed with α-MEM several times using a 21G needle attached to a 1 mL syringe. The fluid (α-MEM) after washing was filtrated through a nylon mesh (330 mesh) to remove unnecessary cells, and myelocytes were isolated. The myelocyte suspension in α-MEM thus obtained was diluted to 1.25 to 3.75×10^6 cell/mL. To 80 mL of the myelocyte suspension, 80 μL of hM-CSF (Wako Pure Chemical) at 10 μg/mL prepared with PBS containing 0.1% BSA was added (final concentration 10 ng/mL). The cells thus prepared were seeded onto 24-well plates (Corning Inc.) by 500 μL to 1 mL per well, and cultured at 37° C. under 5% CO2 for 2 days. Then, unattached cells were washed away with α-MEM, fresh α-MEM containing 10 ng/mL of hM-CSF was added, and the attached cells thus obtained were used as the murine bone marrow-derived macrophages.
# The murine bone marrow-derived macrophages thus prepared were seeded onto 24-well plates (Corning Inc.) by 1 mL each (1.25 to 3.75×10^6 cell/mL). To each of the wells, DTCM glutarimide-C12 at respective concentrations of 1.0, 3.0, 10.0 and 30.0 μg/mL was added, and all the experimental groups were cultured at 37° C. under 5% CO2. The control group was cultured under the same condition but without addition of DTCM glutarimide-C12.
# The cells in the experimental groups were detached using a cell scraper and dissolved in α-MEM at 24 hours, 48 hours and 72 hours after the addition of DTCM glutarimide-C12. Then 1 mL of the cell suspensions were recovered in fresh Eppendorf tubes. […] 10 μL of the cell suspensions was put onto a hemacytometer (Erma Inc.) and total cells and dead cells were counted under a microscope at 100× magnification. In hemacytometric counting, approximately 100 cells were counted per one visual field, and the cell survival rates obtained in four visual fields were averaged. The cell survival rate (%) was calculated according to the following formula. […]
# F9 cells = experiment: Survival rate and growth of F9 cancer cells; type: cell-based, murine
# Experimental: F9 cells derived from murine embryonic tumor cells (purchased from RIKEN Tsukuba Institute BioResource Center, Cell Engineering Division) were plated onto plastic dishes at 1×10^4 cell/mL in DMEM medium containing 15% FBS. DTCM glutarimide-C12 was then added at the concentration of 0, 0.1, 0.3, 1.0, 3.0, 10.0 or 30.0 μg/mL in the culture media, and were cultured for 24, 48 or 72 hours. By following the same method as described in “Measurement of Cell Survival Rate by Trypan Blue Staining” in Example (10), the survival rates of cells were measured. Also, suspensions of the cultured cells were similarly prepared and the numbers of cells in the suspensions were counted by Coulter Counter (Beckman Coulter Inc.) to evaluate cell growth.
# RAW264.7 cells [5] = experiment: Cytotoxicity on RAW264.7 cells: cell survival rate (trypan blue) and total cell number; type: cell-based; details: after 48 hours
# Experimental: In this example, cytotoxicity of DTCM glutarimide on RAW264.7 cells was evaluated, based on cell survival rate and cell growth rate.
# The RAW264.7 cells were seeded on plastic dishes at 1×10^4 cells/ml in DMEM medium containing 10% FBS, to which DTCM glutarimide-C12 was added at the concentration of 0, 0.1, 0.3, 1.0, 3.0 or 10.0 μg/mL to the media. After 24 hours or 48 hours of culture, numbers of total cells were counted using hemacytometer, and numbers of living cells were counted using trypan blue dye exclusion assay.
# IL-6 = IL-6 production by macrophage activation (ELISA); type: cell-based; details: RAW264.7 cells, LPS
# Experimental: RAW264.7 cells were activated under the same conditions as in (4), the cells were recovered, proteins were extracted from the cells by a routine method. An ELISA was conducted using 96-well polystyrene microplates onto which the anti-IL-6 antibody had been immobilized. […] The detected concentrations of IL-6 per 10^6 cells were plotted in FIG. 9.
# [6] = 0.1-3.0 μg/mL, 2 hours pretreatment, LPS 3.0 μg/mL, 20 hours
# [7] = 10 μg/mL, positive control, LPS
smiles,measurement,setting,value
CCCCCCCCCCCCSC(=O)CC1CC(=O)NC(=O)C1 [DTCM glutarimide-C12],iNOS expression,iNOS; 0.1-3.0 μg/mL,prominently suppressed this iNOS expression in a concentration-dependent manner
same,COX-2 expression,COX-2; 0.1-3.0 μg/mL,prominently suppressed this COX-2 expression in a concentration-dependent manner
same,number of osteoclasts,[1],significantly reduced
same,DNA binding ability of NF-κB,"NF-κB; concentrations below 3.0 μg/mL, LPS 30 minutes",did not suppress the DNA binding ability of NF-κB
same,NO production,NO production; [6],significantly suppressed this NO production in a concentration-dependent manner
same,"inhibition of synthesis of DNA, RNA and protein",RAW264.7 cells [2],no significant inhibitory activity
same,"numbers of living cells (MTT), cell growth",RAW264.7 cells [3],did not affect the cell growth
same,survival rate,"[4]; 3.0 μL groups, regardless of culture time (24, 48, 72 hours)",more than 80%
same,survival rate,"[4]; 10.0 and 30.0 μg/mL groups, regardless of culture time",reduced
same,toxicity on murine myelocyte-derived macrophages,[4]; concentrations up to 3.0 μL,does not exhibit toxicity
same,cell survival rate of F9 cells,"F9 cells; 0.1-30.0 μg/mL, 24, 48 or 72 hours, depending on concentration",significantly reduced
same,cell growth of F9 cells,"F9 cells; 0.1-30.0 μg/mL, 24-72 hours, versus group without addition",suppressed
same,"cell survival rate of F9 cells, 72-hour versus 24-hour and 48-hour culturing",F9 cells; 10 or 30 μg/mL,significantly reduced cell survival rate
same,total cell number (cell growth),RAW264.7 cells [5]; concentrations up to 1.0 μg/mL,no suppression of cell growth was detected
same,cell survival rate (living cell number/total cell number),RAW264.7 cells [5]; concentrations up to 3.0 μg/mL,no cell killing effect was detected
same,IL-6 production,IL-6; concentrations below 3.0 μg/mL,did not affect this IL-6 production
"O=C(NC1=CC(=O)[C@H]2O[C@H]2[C@H]1O)c1ccccc1O [(−)-DHMEQ, reference compound]",iNOS expression,"iNOS; 10 μg/mL, control",iNOS expression is suppressed
same,COX-2 expression,"COX-2; 10 μg/mL, positive control",COX-2 expression is suppressed
same,activity of NF-κB (DNA binding),NF-κB; [7],the activity of NF-κB is suppressed
same,NO production,NO production; [7],NO expression is suppressed
same,IL-6 production,"IL-6; 10 μg/mL, positive control",IL-6 production is suppressed
CCCCCCSC(=O)CC1CC(=O)NC(=O)C1 [DTCM glutarimide-C6],NO production,NO production; [6],suppresses NO production
same,NO production,"NO production; 0.1-3.0 μg/mL, 2 hours pretreatment, LPS 3.0 μg/mL, 20 hours, listed as DTCM glutarimide-C16",almost the same results

# From patent US8524747B2, “Pharmaceutical compositions” (Keio University, priority 2008, dated 2013)
